Five compounds from ChEMBL document CHEMBL1155394, “SARS-CoV 3CLpro inhibitory effects of quinone-methide triterpenes from Tripterygium regelii” (Bioorg Med Chem Lett, 2010) can be followed below.

Test [1] has as its target T1, Replicase polyprotein 1ab (Severe acute respiratory syndrome-related coronavirus, UniProt P0C6X7). Kind of test: Inhibition of 3C-like protease of SARS coronavirus assessed as concentration of FRET peptide for 60 mins.
Test [2] has as its target T1, Replicase polyprotein 1ab. The test can be described thus: Inhibition of 3C-like protease of SARS coronavirus assessed as concentration of FRET peptide for 60 mins by dixon plot.

In the case of `CC1=C(O)C(=O)C=C2C1=CC=C1[C@@]2(C)CC[C@@]2(C)[C@@H]3C[C@@H](C)C(=O)C[C@]3(C)CC[C@]12C` [TINGENONE], in test [1], the IC50 is 9.9 µM. For the same compound, the Ki in test [2] came out at 4 µM.
The like results for `CC1=C(O)C(=O)C=C2C1=CC=C1[C@@]2(C)CC[C@@]2(C)[C@@H]3C[C@](C)(C(=O)O)CC[C@]3(C)CC[C@]12C` [CELASTROL] were, in that order, 10.3 µM and 4.2 µM.
As for `COc1cc(/C=C/C(=O)CC(=O)/C=C/c2ccc(O)c(OC)c2)ccc1O` [CURCUMIN], in test [1], the IC50 is 23.5 µM.
With `COC(=O)[C@]1(C)CC[C@]2(C)CC[C@]3(C)C4=CC=C5C(=CC(=O)C(O)=C5C)[C@]4(C)CC[C@@]3(C)[C@@H]2C1` [PRISTIMERIN], the IC50 in test [1] was 5.5 µM. Besides, the Ki in test [2] was determined as 3.1 µM.
On to `Cc1c(O)c(O)cc2c1CC=C1[C@@]2(C)CC[C@@]2(C)[C@@H]3C[C@](C)(C(=O)O)CC[C@]3(C)CC[C@]12C` [DIHYDROCELASTROL], for which the IC50 in test [1] turned out to be 21.7 µM.
